The text below walks through data of publication PMC8126888 (RSC Medicinal Chemistry, 2020).

Data set [1] has as its system primary peritoneal mouse macrophages (PMM). In words: cells. The conditions noted are these: Macrophage, read-out: PMM IC50 (uM).
The nature of data set [2]: in vitro. The conditions noted are these: human, microsomes, pH 7.4, HLM CLint (uL/min/mg), human liver microsomes.
A short description of data set [3]: in vitro. Particulars: mouse, microsomes, pH 7.4, MLM CLint (uL/min/mg), mouse liver microsomes. A general note: Microsomes from liver hold many membrane-bound enzymes, among them those of drug oxidation.
The nature of another data set: physchem. Particulars: HPLC, Ascentis Express RP Amide column, pH 7.4, eLogD, experimental.
Data set [4] is described as follows: in vitro. Particulars: human, THP-1 cells differentiated with PMA.
Data set [5] can be described thus: in vitro. Particulars: human.
A short description of data set [6]: in vitro. The conditions noted are these: human, HFF-1 cells.
A short description of data set [7]: in vitro. The conditions noted are these: human, HepG2 cells.
Data set [8] in a line: in vitro. Particulars: PAMPA. In general terms: PAMPA measures passive passage across an artificial lipid membrane.
The test system of data set [9] is Leishmania infantum MHOM/MA(BE)/67/ITMAP263 intracellular amastigotes. Description: microbe, parasite or virus in culture. The conditions noted are these: Macrophage, in Mus musculus.
In data set [10] the test system is Leishmania infantum (MHOM/MA/67/ITMAP-263) intracellular amastigotes in THP-1. Description: microbe, parasite or virus in culture. The conditions noted are these: THP-1, read-out: L. infantum MHOM/MA/67/ITMAP263 intracellular amastigotes THP-1 cells IC50 (uM).
In data set [11] the test system is Trypanosoma cruzi, Tulahuen CL2, beta-galactosidase strain. Description: microbe, parasite or virus in culture. The conditions noted are these: MRC5, read-out: T. cruzi Tulahuen C4 (LacZ) IC50 (uM).
[12] abbreviates: read-out: L. Inf. pIC50, from L. infantum intracellular amastigote IC50 (converted).
Setting [13] is: read-out: L. infantum MHOM/MA(BE)/67/ITMAP263 intracellular amastigotes IC50 (uM), intracellular amastigotes.

Molecules are shown by their SMILES. Where two headings read alike, the source gives them in different places.

As for `COc1ccc(S(C)(=O)=O)cc1S(=O)(=O)N(Cc1ccccc1)CC(C)(C)C` [DNDI0003425524], the IC50 was more than 64 µM in [1]; 2.69 µM in data set [9] (setting [12]); 2.69 µM in data set [9] (setting [13]); 47.7 µM in data set [10]; 28.7 µM in data set [11]. The microsomal CLint (as a rule, a measure of how fast metabolising enzymes remove a compound, apart from limits set by blood flow) at 0.5 μM came out at 1050 µL/min/mg in the data set “in vitro [2]” and 1100 µL/min/mg in the data set “in vitro [3]”. In “physchem”, the chromatographic logD (as a rule, lipophilicity estimated from chromatographic retention) was found to be 3.6. In “in vitro [4]”, the CC50 at 120 h is more than 64 µM. The CC50 at 3 days in the data set “in vitro [5]” was more than 64 µM. The CC50 in “in vitro [6]” is 57.2 µM; in “in vitro [7]” it was more than 64 µM. In addition, the Papp – broadly, the rate of passage across a membrane or cell layer, normalised by area and donor concentration – in “in vitro [8]” stood at 14.1 ×10⁻⁶ cm/s.

Regarding `COc1ccc(Cl)cc1S(=O)(=O)N(Cc1ccccc1)C1COC(=O)OC1` [DNDI0003392146], the IC50 is more than 64 µM in [1]; 17 µM in [9] (setting [12]); 16.9 µM in data set [9] (setting [13]); more than 64 µM in data set [10]; 17 µM in data set [11]. In addition, the microsomal CLint at 0.5 μM stood at 21 µL/min/mg in “in vitro [2]” and 118 µL/min/mg in the data set “in vitro [3]”. In the data set “physchem”, the chromatographic logD was found to be 3.5. Also, the CC50 at 120 h in the data set “in vitro [4]” is more than 64 µM. The compound further gave a CC50 at 3 days in the data set “in vitro [5]” of 59.1 µM. Further, the CC50 was 54.8 µM in “in vitro [6]” and more than 64 µM in the data set “in vitro [7]”. This compound also gave a Papp in the data set “in vitro [8]” of 13.2 ×10⁻⁶ cm/s.

With `CCCCOc1ccc(C(=O)N2CCOCC2)cc1S(=O)(=O)NCc1ccccc1` [DNDI0003407874], the IC50 was more than 64 µM in data set [1]; more than 64 µM in [9] (setting [12]); more than 64 µM in data set [9] (setting [13]); more than 64 µM in data set [10]; 45.9 µM in data set [11]. Further, the microsomal CLint at 0.5 μM is 160 µL/min/mg in the data set “in vitro [2]” and 274 µL/min/mg in “in vitro [3]”. Moreover, the chromatographic logD in the data set “physchem” amounted to 3.1. In the data set “in vitro [4]”, this compound gave a CC50 at 120 h of more than 64 µM. Further, the CC50 at 3 days in the data set “in vitro [5]” is more than 64 µM. The CC50 in the data set “in vitro [6]” and in “in vitro [7]” was more than 64 µM each time. In the data set “in vitro [8]”, the Papp came out at 27.4 ×10⁻⁶ cm/s.

In the case of `COc1ccc(C(=O)N2CCOCC2)cc1S(=O)(=O)N(Cc1ccccc1)CC(C)(C)C` [DNDI0003407876], the IC50 in data set [1] was more than 64 µM; in data set [9] (setting [12]), 1 µM; in data set [9] (setting [13]), 1 µM; in data set [10], 27.5 µM; in data set [11], 16.7 µM. The results for the microsomal CLint at 0.5 μM in “in vitro [2]” and in the data set “in vitro [3]” were 1140 µL/min/mg and 858 µL/min/mg, respectively. Also, in “in vitro [4]”, the CC50 at 120 h was more than 64 µM. In the data set “in vitro [5]”, this compound had a CC50 at 3 days of more than 64 µM. Besides, the CC50 in the data set “in vitro [6]” and in the data set “in vitro [7]” was more than 64 µM each time. Also, the Papp in the data set “in vitro [8]” came out at 21.7 ×10⁻⁶ cm/s.

`O=C(c1ccc(OCC2CCCO2)c(S(=O)(=O)NCc2ccccc2)c1)N1CCOCC1` (stereo not drawn) [DNDI0003407877]: the IC50 is more than 64 µM in data set [1]; more than 64 µM in [9] (setting [12]); more than 64 µM in data set [9] (setting [13]); more than 64 µM in [10]; 31 µM in [11]. The results for the microsomal CLint at 0.5 μM in the data set “in vitro [2]” and in the data set “in vitro [3]” were 85 µL/min/mg and 181 µL/min/mg, respectively. Also, the chromatographic logD in “physchem” is 2.7. The CC50 at 120 h in the data set “in vitro [4]” was more than 64 µM. This compound registered a CC50 at 3 days in the data set “in vitro [5]” of more than 64 µM. In addition, the CC50 in “in vitro [6]” and in “in vitro [7]” was more than 64 µM in each case. This compound also returned a Papp in the data set “in vitro [8]” of 14.7 ×10⁻⁶ cm/s.

For the compound `Nc1cc(Cl)c(S(N)(=O)=O)cc1S(=O)(=O)N(Cc1ccccc1)Cc1ccccc1` [DNDI0003392145], the IC50 in data set [1] is 50.8 µM; in data set [9] (setting [12]), 35.5 µM; in [9] (setting [13]) it was 35.3 µM; in data set [10], 31.2 µM; in data set [11], 17.7 µM. This compound came in with a microsomal CLint at 0.5 μM in the data set “in vitro [2]” of 253 µL/min/mg. In the data set “physchem”, this compound showed a chromatographic logD of 3.4. Also, the CC50 at 120 h in “in vitro [4]” was determined as 60.6 µM. The compound also gave a CC50 at 3 days in the data set “in vitro [5]” of 43.4 µM. For the same compound, the CC50 in the data set “in vitro [6]” and in the data set “in vitro [7]” was more than 64 µM each time. For the same compound, in “in vitro [8]”, the Papp was 3.37 ×10⁻⁶ cm/s.

For `NS(=O)(=O)c1cc2c(cc1Cl)NCN(Cc1ccccc1)S2(=O)=O` [DNDI0003392143], the IC50 in data set [1] was more than 64 µM; in data set [9] (setting [12]), 57.5 µM; in data set [9] (setting [13]), 57 µM; in data set [10] it was more than 64 µM; in data set [11], 27.2 µM. Besides, the microsomal CLint at 0.5 μM in the data set “in vitro [2]” turned out to be 21 µL/min/mg; in “in vitro [3]” it was 164 µL/min/mg. Besides, the chromatographic logD in the data set “physchem” turned out to be 2.3. In “in vitro [4]”, this compound displayed a CC50 at 120 h of more than 64 µM. The CC50 at 3 days in the data set “in vitro [5]” is more than 64 µM. Moreover, the CC50 in “in vitro [6]” and in the data set “in vitro [7]” was more than 64 µM in each case. Moreover, the Papp in the data set “in vitro [8]” is 2.83 ×10⁻⁶ cm/s.

On to `COc1ccc(S(N)(=O)=O)cc1S(=O)(=O)NCc1ccccc1` [DNDI0003407892], for which the IC50 in [1], in data set [9] (setting [12]), in data set [9] (setting [13]), in data set [10] and in [11] was more than 64 µM throughout. For the same compound, the results for the microsomal CLint at 0.5 μM in “in vitro [2]” and in “in vitro [3]” were 20 µL/min/mg and 23 µL/min/mg, respectively. The same compound came in with a chromatographic logD in the data set “physchem” of 1.1. The compound also had a CC50 at 120 h in the data set “in vitro [4]” of more than 64 µM. For the same compound, the CC50 at 3 days in the data set “in vitro [5]” is more than 64 µM. The CC50 in the data set “in vitro [6]” and in “in vitro [7]” was more than 64 µM in each case. In the data set “in vitro [8]”, this compound displayed a Papp of 0.61 ×10⁻⁶ cm/s.

For the compound `O=S1(=O)NCNc2cc(Cl)c(S(=O)(=O)N(Cc3ccccc3)Cc3ccccc3)cc21` [DNDI0003425512], the IC50 is 32 µM in [1]; 1.29 µM in [9] (setting [12]); 1.28 µM in data set [9] (setting [13]); 24.9 µM in data set [10]; 9.14 µM in data set [11]. Also, the microsomal CLint at 0.5 μM in the data set “in vitro [2]” came to 63 µL/min/mg. In addition, in the data set “physchem”, the chromatographic logD is 4.2. In “in vitro [4]”, the CC50 at 120 h was found to be 52.4 µM. The compound also had a CC50 at 3 days in “in vitro [5]” of 25 µM. Also, the CC50 in “in vitro [6]” was 29.5 µM; in the data set “in vitro [7]”, more than 64 µM. Besides, in “in vitro [8]”, the Papp was 0.04 ×10⁻⁶ cm/s.

Turning to `COc1ccc(C(=O)N2CCOCC2)cc1S(=O)(=O)N(Cc1ccc(C(F)(F)F)nc1)CC(C)(C)C` [DNDI0003407906], the IC50 was more than 64 µM in [1]; 45.7 µM in data set [9] (setting [12]); 45.2 µM in data set [9] (setting [13]); more than 64 µM in [10]; 35.6 µM in data set [11]. The microsomal CLint at 0.5 μM in the data set “in vitro [2]” was 127 µL/min/mg; in the data set “in vitro [3]” it was 262 µL/min/mg. The CC50 at 120 h in “in vitro [4]” was more than 64 µM. This compound also yielded a CC50 at 3 days in “in vitro [5]” of more than 64 µM. The CC50 in the data set “in vitro [6]” and in the data set “in vitro [7]” was more than 64 µM each time. Besides, the Papp in the data set “in vitro [8]” was 15.7 ×10⁻⁶ cm/s.

In the case of `COCCOCN1CNc2cc(OC)c(S(=O)(=O)N(Cc3ccccc3)Cc3ccccc3)cc2S1(=O)=O` [DNDI0003425511], the IC50 in data set [1] is more than 64 µM; in [9] (setting [12]), 0.661 µM; in [9] (setting [13]), 0.65 µM; in [10], 14.8 µM; in data set [11], 61.7 µM. The microsomal CLint at 0.5 μM came out at 460 µL/min/mg in “in vitro [2]” and 976 µL/min/mg in the data set “in vitro [3]”. In the data set “in vitro [4]”, this compound registered a CC50 at 120 h of 40.2 µM. Also, the CC50 at 3 days in “in vitro [5]” was more than 64 µM. The CC50 in “in vitro [6]” was more than 64 µM; in the data set “in vitro [7]” it was 52 µM. In “in vitro [8]”, the Papp is 0.92 ×10⁻⁶ cm/s.

For `COc1ccc(C#N)cc1S(=O)(=O)N(Cc1ccccc1)Cc1cnc(C(F)(F)F)nc1` [DNDI0003425527], the IC50 was more than 64 µM in data set [1]; 3.89 µM in data set [9] (setting [12]); 3.9 µM in data set [9] (setting [13]); 61.1 µM in [10]; 28.4 µM in [11]. Moreover, the microsomal CLint at 0.5 μM in the data set “in vitro [2]” was 80 µL/min/mg; in the data set “in vitro [3]”, 100 µL/min/mg. Moreover, the CC50 at 120 h in “in vitro [4]” is more than 64 µM. The same compound showed a CC50 at 3 days in the data set “in vitro [5]” of more than 64 µM. The CC50 in the data set “in vitro [6]” and in the data set “in vitro [7]” was more than 64 µM in each case. The Papp in “in vitro [8]” came to 29.4 ×10⁻⁶ cm/s.
